The values that follow come from patent publication US7642364B2, “Benzopyrone compounds, preparation method and use thereof” (Shenyang Research Institute of Chemical Industry, priority 2003, dated 2010).

One test deals with cucumber downy mildew. Briefly: Fungicidal activity on potted plants, cucumber downy mildew. The test is classed as in vivo. To be noted: for control(%) fungicidal activity against cucumber downy mildew: 50 ppm; for control against cucumber downy mildew: 200 ppm, spray on potted plant.
Another test deals with cucumber grey mold. Briefly: Fungicidal activity on potted plants, cucumber grey mold. The note with it: 200 ppm. Type of test: in vivo.
The next test has as its system culex mosquitoes. As to the kind of experiment: Insecticidal/acaricidal activity, culex mosquitoes. Type of test: in vivo. To be noted: 10 ppm.
In the next test the test system is grape downy mildew. As to the kind of experiment: Fungicidal activity on potted plants, grape downy mildew. The note with it: 200 ppm. Type of test: in vivo.
A further test deals with wheat leaf rust. Briefly: Fungicidal activity on potted plants, wheat leaf rust. To be noted: 200 ppm. The test is classed as in vivo.
Another test concerns wheat leaf blotch. As to the kind of experiment: Fungicidal activity on potted plants, wheat leaf blotch. The test is classed as in vivo. The note with it: 200 ppm.
Another test relates to tomato late blight. Type of test: in vivo. To be noted: 200 ppm.
The subject of another test is Mexican lady beetle. Briefly: Insecticidal/acaricidal activity, Mexican lady beetle. Type of test: in vivo. The note with it: 300 ppm. The protocol:
Numerous insect larvae were put into containers then were fed with treated corn leaves. Potter's spraying tower was used as the sprayer and spraying volume was 1 mL. The spraying pressure was 13.5 lb/in^2.

The next test has as its system two-spotted spider mite. As to the kind of experiment: Insecticidal/acaricidal activity, two-spotted spider mite. Type of test: in vivo. The note with it: 300 ppm.
The test system of test [1] is tomato early stage blight. Briefly: Fungicidal activity on potted plants, tomato early stage blight. The test is classed as in vivo. The note with it: 200 ppm.
In another test the test system is wheat powdery mildew. As to the kind of experiment: Fungicidal activity on potted plants, wheat powdery mildew. To be noted: 200 ppm. The test is classed as in vivo.
Test [2] in a line: Biological evaluation of compound JP51 after synthesis. The note with it: after synthesis and the biological evaluation. The source says:
Biological active data of the compound in JP04-182461 have not been disclosed.

In the case of `COC=C(C(=O)OC)c1ccccc1COc1ccc2ccc(=O)oc2c1` [Compound 1], in the test on cucumber downy mildew, the “control(%) fungicidal activity against cucumber downy mildew” value (“control(%) fungicidal activity” below) is given as 100% and the “control against cucumber downy mildew” value stood at 100%.

Regarding `COC=C(C(=O)OC)c1ccccc1COc1ccc2c(C)cc(=O)oc2c1` [Compound 2], in the test on cucumber downy mildew, the “control(%) fungicidal activity” value was determined as 100% and the “control against cucumber downy mildew” value came to 100%. Further, in the test with cucumber grey mold, the “control against cucumber grey mold” value was determined as 100%. In addition, the “control of culex mosquitoes” value in the test on culex mosquitoes came out at 100%.

As to `COC=C(C(=O)OC)c1ccccc1COc1ccc2c(-c3ccccc3)cc(=O)oc2c1C` [Compound 4], the “control against cucumber downy mildew” value with cucumber downy mildew was 100%.

In the case of `COC=C(C(=O)OC)c1ccccc1COc1ccc2c(C)c(C)c(=O)oc2c1` [Compound 5], in the test on cucumber downy mildew, the “control(%) fungicidal activity” value turned out to be 100% and the “control against cucumber downy mildew” value is 100%. For the same molecule, in the test on culex mosquitoes, the “control of culex mosquitoes” value is reported as 100%.

For the molecule `COC=C(C(=O)OC)c1ccccc1COc1ccc2c(C)c(C)c(=O)oc2c1C` [Compound 6], in the test on cucumber downy mildew, the “control(%) fungicidal activity” value was found to be 100% and the “control against cucumber downy mildew” value is on record as 100%. In the test on cucumber grey mold, the “control against cucumber grey mold” value turned out to be 100%. The “control against grape downy mildew” value in the test with grape downy mildew was 100%. In addition, the “control against wheat leaf rust” value in the test on wheat leaf rust was found to be 100%. In addition, the “control against wheat leaf blotch” value with wheat leaf blotch is listed as more than 90%. For the same molecule, in the test with tomato late blight, the “control against tomato late blight” value is more than 95%. For the same molecule, the “control of culex mosquitoes” value in the test with culex mosquitoes is reported as 100%.

Regarding `COC=C(C(=O)OC)c1ccccc1COc1ccc2c(C(F)(F)F)cc(=O)oc2c1` [Compound 7], the “control against grape downy mildew” value with grape downy mildew was 100%. Moreover, the “control of Mexican lady beetle” value with Mexican lady beetle is listed as 100%. Further, in the test on two-spotted spider mite, the “control of two-spotted spider mite” value is more than 50%.

Consider `COC=C(C(=O)OC)c1ccccc1COc1cc2oc(=O)cc(C)c2cc1C(C)=NOC` [Compound 9], for which the “control of Mexican lady beetle” value in the test on Mexican lady beetle stood at 100%.

For the molecule `COC=C(C(=O)OC)c1ccccc1COc1cc2oc(=O)cc(C)c2cc1C(C)=O` [Compound 10], in the test with grape downy mildew, the “control against grape downy mildew” value was 100%. In addition, the “control against tomato late blight” value in the test with tomato late blight is reported as more than 75%. The “control of Mexican lady beetle” value with Mexican lady beetle turned out to be 100%.

Regarding `COC=C(C(=O)OC)c1ccccc1COc1ccc2c(C)cc(=O)oc2c1C(C)=O` [Compound 11], in test [1], the “control against tomato early stage blight” value was more than 75%.

In the case of `COC=C(C(=O)OC)c1ccccc1COc1ccc2c(C)c(Cl)c(=O)oc2c1` [Compound 12], in the test with cucumber downy mildew, the “control(%) fungicidal activity” value is recorded as 100% and the “control against cucumber downy mildew” value was 100%.

Turning to `CCc1c(C)c2ccc(OCc3ccccc3C(=COC)C(=O)OC)cc2oc1=O` [Compound 18], the “control against cucumber downy mildew” value with cucumber downy mildew worked out at 100%. Moreover, the “control against cucumber grey mold” value in the test on cucumber grey mold came out at 100%.

Consider `COC=C(C(=O)OC)c1ccccc1COc1ccc2c(COC)cc(=O)oc2c1` [Compound 19], for which, in the test on cucumber downy mildew, the “control against cucumber downy mildew” value is 100%.

As to `COC=C(C(=O)OC)c1ccccc1COc1ccc2c(C)c(Cl)c(=O)oc2c1C` [Compound 25], the “control against cucumber downy mildew” value in the test on cucumber downy mildew is 100%.

For `COC=C(C(=O)OC)c1ccccc1COc1ccc2c(C(C)C)cc(=O)oc2c1` [Compound 26], in the test with cucumber downy mildew, the “control(%) fungicidal activity” value came to 100% and the “control against cucumber downy mildew” value was 100%.

As for `CCc1cc(=O)oc2cc(OCc3ccccc3C(=COC)C(=O)OC)ccc12` [Compound 33], in the test with cucumber downy mildew, the “control against cucumber downy mildew” value is recorded as 100%.

Turning to `CCCc1cc(=O)oc2cc(OCc3ccccc3C(=COC)C(=O)OC)ccc12` [Compound 34], in the test with cucumber downy mildew, the “control against cucumber downy mildew” value is 100%.

As for `CCCc1cc(=O)oc2c(C)c(OCc3ccccc3C(=COC)C(=O)OC)ccc12` [Compound 35], in the test with cucumber downy mildew, the “control against cucumber downy mildew” value is 100%.

As to `CCCc1c(C)c(=O)oc2cc(OCc3ccccc3C(=COC)C(=O)OC)ccc12` [Compound 37], in the test on cucumber downy mildew, the “control(%) fungicidal activity” value is 100% and the “control against cucumber downy mildew” value stood at 100%.

Take `COC=C(C(=O)OC)c1ccccc1COc1ccc2c(C)c(F)c(=O)oc2c1` [Compound 50]: in the test on cucumber downy mildew, the “control against cucumber downy mildew” value is 100%. Further, the “control against cucumber grey mold” value in the test with cucumber grey mold was 100%.

As for `COC=C(C(=O)OC)c1ccccc1COc1ccc2c(-c3ccccc3)cc(=O)oc2c1` [Compound 52], in the test with cucumber downy mildew, the “control(%) fungicidal activity” value amounted to 100% and the “control against cucumber downy mildew” value came to 100%.

With `COC=C(C(=O)OC)c1ccccc1COc1ccc2c(-c3ccc(OC)c(OC)c3)cc(=O)oc2c1` [Compound 58], the “control against cucumber downy mildew” value in the test on cucumber downy mildew was found to be 100%. Also, the “control against cucumber grey mold” value with cucumber grey mold was found to be 100%.

Take `COC=C(C(=O)OC)c1ccccc1COc1ccc2c(C)c(Cc3ccccc3)c(=O)oc2c1C` [Compound 69]: the “control against cucumber downy mildew” value with cucumber downy mildew worked out at 100%.

With `CON=C(C(=O)OC)c1ccccc1COc1ccc2c(C)c(Cl)c(=O)oc2c1` [Compound 100], the “control against cucumber grey mold” value with cucumber grey mold was 100%.

Turning to `CON=C(C(=O)OC)c1ccccc1COc1ccc2c(C)c(Cl)c(=O)oc2c1C` [Compound 109], the “control against cucumber downy mildew” value in the test on cucumber downy mildew was determined as 100%.

Regarding `CON=C(C(=O)OC)c1ccccc1COc1cc2oc(=O)cc(-c3cccc(C(F)(F)F)c3)c2cc1C(C)=O` [Compound 141], the “control(%) fungicidal activity” value in the test on cucumber downy mildew turned out to be 100%.

Regarding `CCCCc1c(C)c2ccc(OCc3ccccc3C(=COC)C(=O)OC)cc2oc1=O` [Compound 402], in the test on cucumber downy mildew, the “control(%) fungicidal activity” value worked out at 100% and the “control against cucumber downy mildew” value stood at 100%. Moreover, the “control against cucumber grey mold” value in the test with cucumber grey mold is on record as 100%. For the same molecule, in the test with wheat powdery mildew, the “control against wheat powdery mildew” value is listed as 100%.

As for `CCCCCCc1c(C)c2ccc(OCc3ccccc3C(=COC)C(=O)OC)cc2oc1=O` [Compound 405], in the test with cucumber downy mildew, the “control(%) fungicidal activity” value is recorded as 100% and the “control against cucumber downy mildew” value is listed as 100%.

`CCCc1c(CCC)c2ccc(OCc3ccccc3C(=COC)C(=O)OC)cc2oc1=O` [Compound 409]: in the test on cucumber downy mildew, the “control(%) fungicidal activity” value stood at 100% and the “control against cucumber downy mildew” value was 100%.

Turning to `CCCc1c(Cl)c(=O)oc2cc(OCc3ccccc3C(=NOC)C(=O)OC)ccc12` [Compound 410], the “control against cucumber downy mildew” value in the test on cucumber downy mildew was determined as 100%.

In the case of `CCCc1c(C)c2ccc(OCc3ccccc3C(=NOC)C(=O)OC)cc2oc1=O` [Compound 412], the “control against wheat powdery mildew” value in the test with wheat powdery mildew was 100%.

For `CCCCc1c(C)c2ccc(OCc3ccccc3C(=NOC)C(=O)OC)cc2oc1=O` [Compound 413], the “control against cucumber downy mildew” value with cucumber downy mildew amounted to 100%. Also, the “control against wheat powdery mildew” value with wheat powdery mildew is listed as 100%.

For the molecule `CCCCCCc1c(C)c2ccc(OCc3ccccc3C(=NOC)C(=O)OC)cc2oc1=O` [Compound 414], in the test with cucumber downy mildew, the “control against cucumber downy mildew” value worked out at 100%.

As for `CNC(=O)/C(=N/OC)c1ccccc1COc1ccc2ccc(=O)oc2c1` [JP51, reference compound], in the test on cucumber downy mildew, the “control(%) fungicidal activity” value amounted to 20%. For the same molecule, the “biological activity (general statement)” value in test [2] was “low biological active”.
